Measured values reported in patent publication US8642502B2, “Reversible gel-forming compositions for controlled delivery of bioactive substances” (TRGel, LLC, priority 2010, dated 2014).

Legend:
[1] = Solubility of trans-stilbene oxide in water vs 10% copolymer solution (UV spectra); type: physicochemical; conditions: in 10% solution of p-MDM/DGDM copolymer
Method: Solutions of trans-stilbene oxide were prepared in water and in a 10% solution of p-MDM/DGDM copolymer.

[2] = Solubility of DM monomers and polymers in solvents; type: physicochemical
From the text: The DM monomers as prepared by the methods exemplified in Examples 1-5 above were converted to polymers by the anionic polymerization reaction as illustrated in Reaction Scheme A and the physical properties of homopolymers of differing monomers are presented in Table 1. With reference to Table 1 it should be noted that all of the resulting polymers have very low poly dispersity (Mw/Mn). […] Water-soluble polymers are particularly useful in biological applications such as surface protection from non-specific adsorption. The data also illustrates that the glass transition temperature (Tg) of polymers with alkyl substituents decreases as the alkyl chain length increases. […] The DM polymers wherein R=2-methoxyethyl and R=ethoxy-2-methoxyethyl show lower critical solution temperature (LCST) behavior.

Row | solubility (in words) [2] | Compound | solubility relative to solubility in water [1]
1 |  | c1ccc([C@@H]2O[C@H]2c2ccccc2)cc1 (relative stereo) [trans-stilbene oxide] | improved
2 | soluble in hexane | CCCCCCCCCCO[C@H]1[C@@H]2O[C@@H]2[C@@H]2OC[C@H]1O2 [DDM, 1,6:2,3-dianhydro-4-O-decyl-β-D-mannopyranose] | 
3 | soluble in water | COCCOC1C2COC(O2)C2OC12 [MEDM, 1,6:2,3-dianhydro-4-O-(2-methoxyethyl)-β-D-mannopyranose] | 
